Source: patent publication US20260335279A1, “METHODS OF TREATING ISCHEMIA-REPERFUSION INJURIES” (University of Cincinnati, priority 2022, published 2026)

Key:
cardiac fibrosis in mice = experiment: Masson's Trichrome staining, cardiac fibrosis in chronic model of I/R injury; type: in vivo, mouse (C57BL/6); details: 30 min ischemia, 4 weeks reperfusion; two doses of ML264 at early reperfusion
Procedure: (§1) The myocardial ischemia/reperfusion surgical protocol was applied as follows. Mice were anesthetized with 2% isoflurane inhalation until anesthesia was achieved. The animals' body temperature was maintained at 37 °C throughout the surgical procedure using a heating pad. A tracheal tube was placed via tracheal intubation and the respiration rate was set at 150 strokes/min with a tidal volume of 200 μL, using Minivent ventilator for mice (Model 845, Harvard Apparatus). A 1.2 cm incision was made over the left chest. After retraction of the pectoral major and minor muscles, the fourth intercostal space was exposed. […] The left anterior descending coronary artery (LAD) was then located, sutured, and ligated at a site 3-4 mm distal to the origin of the artery under the left atrium using a 6-0 silk suture. The heart was allowed to stabilize for 15 min and right after, ischemia was induced by tightening the suture against a small piece of polyethylene tube. […] The mouse was then monitored during the recovery period, which was generally completed within 3 to 5 minutes. […]
Tissue sectioning and Masson's Trichrome staining were performed. […] Fibrotic myocardial tissue size was measured as % area with respect to the total slice area in mouse hearts imaged at 0.8×. […]

Col1a1 = Col1a1 mRNA in chronic model of I/R injury (real-time PCR); type: in vivo, mouse (C57BL/6); details: 4 weeks post-I/R; vs IR group treated with vehicle
Procedure: (§2) The myocardial ischemia/reperfusion surgical protocol was applied as follows. Mice were anesthetized with 2% isoflurane inhalation until anesthesia was achieved. The animals' body temperature was maintained at 37 °C throughout the surgical procedure using a heating pad. A tracheal tube was placed via tracheal intubation and the respiration rate was set at 150 strokes/min with a tidal volume of 200 μL, using Minivent ventilator for mice (Model 845, Harvard Apparatus). A 1.2 cm incision was made over the left chest. After retraction of the pectoral major and minor muscles, the fourth intercostal space was exposed. […] The mouse was then monitored during the recovery period, which was generally completed within 3 to 5 minutes. […]
(§3) Total RNA was purified from heart tissue using the TRIzol reagent according to the instructions of the manufacturer (ThermoFischer Scientific, Cat. No.: 15596018). cDNA synthesis was performed using the Applied Biosystems High Capacity cDNA Reverse Transcription Kit (ThermoFischer Scientific, Cat. No.: 4368814) from 500 ng RNA, which had been treated with DNAase I (ThermoFischer Scientific, Cat. No.: 18068015). Quantitative real-time PCR was performed with the SYBR Select Master Mix (ThermoFischer Scientific, Cat. No.: 4472903) using the manufacturer's recommendations. […]

Col3a1 = Col3a1 mRNA in chronic model of I/R injury (real-time PCR); type: in vivo, mouse (C57BL/6); details: 4 weeks post-I/R; vs IR group treated with vehicle
Procedure: as §2, §3

[1] = tested on: reactive oxygen species in myocardium; experiment: DHE staining of myocardium (superoxide detection, oxidative stress) after I/R; type: in vivo, mouse (C57BL/6); details: 30 min ischemia, 2 h reperfusion; ML264 5 min prior to reopening of coronary artery; vs I/R vehicle
Procedure: The myocardial ischemia/reperfusion surgical protocol was applied as follows. Mice were anesthetized with 2% isoflurane inhalation until anesthesia was achieved. The animals' body temperature was maintained at 37 °C throughout the surgical procedure using a heating pad. A tracheal tube was placed via tracheal intubation and the respiration rate was set at 150 strokes/min with a tidal volume of 200 μL, using Minivent ventilator for mice (Model 845, Harvard Apparatus). A 1.2 cm incision was made over the left chest. After retraction of the pectoral major and minor muscles, the fourth intercostal space was exposed. […] The left anterior descending coronary artery (LAD) was then located, sutured, and ligated at a site 3-4 mm distal to the origin of the artery under the left atrium using a 6-0 silk suture. The heart was allowed to stabilize for 15 min and right after, ischemia was induced by tightening the suture against a small piece of polyethylene tube. At the end of the 30-minute ischemia period, the ligature was released for the induction of reperfusion, and then the manual evacuation of air and closure of muscle and skin were performed. The mouse was then monitored during the recovery period, which was generally completed within 3 to 5 minutes. […]
Live myocardium was isolated from mice at the time of euthanasia and stained with 20 μM dihydroethidium (DHE) for 30 min at room temperature. […] Individual nuclei were measured within each visual field using ImageJ software, and visual fields were averaged to measure mean fluorescence intensity for each mouse.
In order to unravel the mechanisms of KLF5-mediated cardiotoxicity, oxidative stress levels were evaluated at early reperfusion. […] Given the fact that inflammation and diapedesis of immune cells are important hallmarks of the post-ischemia-reperfusion response, the mRNA levels of IL-1α, IL-1β, IL-6, IL-10, and TNFα in the ischemic myocardium upon ML264 treatment were evaluated at 2 hours of reperfusion (FIGS. 51-5M) and 24 hours of reperfusion (FIGS. 5N-5Q). […]

NOX4 = NOX4 protein in myocardium after I/R (Western blot); type: in vivo, mouse (C57BL/6); details: ML264 treatment, 30 min ischemia, 2 h reperfusion
Procedure: as §1, with “suture.” for “suture. The heart was allowed to stabilize for 15 min and right after, ischemia was induced by tightening the suture against a small piece of polyethylene tube.”
(§4) Isolated myocardial tissue/isolated primary murine cardiomyocytes were homogenized in radioimmunoprecipitation assay buffer (RIPA buffer) containing protease and phosphatase inhibitors (Thermo Fischer Scientific, Cat. No.: A32959). […] Relative densitometry was determined, and the β-actin protein was used as a loading control.
(§5) In order to unravel the mechanisms of KLF5-mediated cardiotoxicity, oxidative stress levels were evaluated at early reperfusion. […]

BAX = BAX apoptotic protein in myocardium after I/R (Western blot); type: in vivo, mouse (C57BL/6); details: ML264-treated group; 30 min ischemia, 2 h reperfusion
Procedure: as §1, with “suture.” for “suture. The heart was allowed to stabilize for 15 min and right after, ischemia was induced by tightening the suture against a small piece of polyethylene tube.”
as §4, §5

IL-6 = IL-6 mRNA in ischemic myocardium; type: in vivo, mouse (C57BL/6); details: evaluated at 2 h and 24 h of reperfusion, vs vehicle
Procedure: as §2, §3

Ugdh = Ugdh levels after I/R; type: in vivo, mouse; details: among the three groups, ML-264 treatment
Procedure: as §2, §3

Glut4 = Glut4 mRNA after I/R; type: in vivo, mouse; details: ML-264 treatment; vs I/R group treated with vehicle
Procedure: as §2, §3

Glut1 = Glut1 mRNA after I/R; type: in vivo, mouse; details: ML-264 treatment; vs I/R group treated with vehicle
Procedure: as §2, §3

SMILES: CN(C(=O)CNC(=O)/C=C/c1cccc(Cl)c1)C1CCS(=O)(=O)CC1 [ML264]
- fibrotic scar tissue formation (cardiac fibrosis in mice): significant reduction
- mRNA levels of Col1a1 (Col1a1): decreased
- mRNA levels of Col3a1 (Col3a1): decreased
- reactive oxygen species formation (DHE staining) [1]: significant reduction
- NOX4 protein levels (NOX4): suppressed
- NOX4 levels (NOX4; FIG. 5C-5E (mRNA and protein)): significant suppression
- BAX apoptotic proteins (BAX): suppression
- IL-6 mRNA levels (IL-6): Significant suppression
- Ugdh levels (Ugdh): no effect
- Glut4 mRNA levels (Glut4): significant suppression
- Glut1 levels (mRNA) (Glut1): trend towards reduced
